Columns and labels:
[1] = tested on: PDE4; experiment: Inhibition of PDE4 activity (method of Bauer and Schwabe, adapted to microtiter plates); assay type: biochemical; settings: inhibitory concentration as -log IC50 (mol/l)
Experimental: The activity test was carried out according to the method of Bauer and Schwabe, which was adapted to microtiter plates (Naunyn-Schmiedeberg's Arch. Pharmacol. 1980, 311, 193-198). In this test, the PDE reaction takes place in the first step. In a second step, the resulting 5′-nucleotide is cleaved by a 5′-nucleotidase of the snake venom from Crotalus atrox to give the uncharged nucleoside. In the third step, the nucleoside is separated from the remaining charged substrate on ion-exchange columns. The columns are eluted directly into minivials to which 2 ml of scintillator fluid is additionally added for counting […].
The inhibitory values determined for the compounds according to the invention [inhibitory concentration as -log IC50 (mol/l)] results from the following Table A, in which the numbers of the compounds correspond to the numbers of the examples.

Compound	melting point	Inhibition of the PDE4 activity, -log IC50 [1]
COc1ccc(C2(C#N)CCC(=O)CC2)c2nc(C(C)C)oc12 [Compound 3, 4-Cyano-4-(2-isopropyl-7-methoxybenzoxazol-4-yl)cyclohexanone]	118 °C	6.96 mol/l
COc1ccc(C2(C#N)CCC(O)CC2)c2nc(C(C)C)oc12 (stereo not drawn) [Compound 4, cis-4-Cyano-4-(2-isopropyl-7-methoxybenzoxazol-4-yl)cyclohexan-1-ol]	116.5 °C	7.77 mol/l
COc1ccc(C2(C#N)CCOCC2)c2nc(C(C)C)oc12 [Compound 2, 4a-Cyano-4e-(2-isopropyl-7-methoxybenzoxazol-4-yl)-tetrahydropyran]	156.5 °C	7.86 mol/l
COc1ccc(C2(C#N)CCOCC2)c2nc(C)oc12 [Compound 1, 4a-Cyano-4e-(2-methyl-7-methoxybenzoxazol-4-yl)tetrahydropyran]	72 °C	6.87 mol/l

More lines, main results first:

melting point	Compound	Inhibition of the PDE4 activity, -log IC50 [1]
217.5 °C	COc1ccc(C2(C#N)CCC(C(=O)O)CC2)c2nc(C(C)C)oc12 (stereo not drawn) [Compound 6, cis-4-Cyano-4-(2-isopropyl-7-methoxybenzoxazol-4-yl)cyclohexane-1-carboxylic acid]	7.69 mol/l
83 °C	COC(=O)C1CCC(C#N)(c2ccc(OC)c3oc(C(C)C)nc23)CC1 (stereo not drawn) [Compound 5, Methyl cis-4-cyano-(2-isopropyl-7-methoxybenzoxazol-4-yl)cyclohexane-1-carboxylate]	6.46 mol/l
228 °C	COc1ccc(C2(C#N)CCC(C(N)=O)CC2)c2nc(C(C)C)oc12 (stereo not drawn) [Compound 7, Cis-4-Cyano-4-(2-isopropyl-7-methoxybenzoxazol-4-yl)cyclohexane-1-carboxamide]	7.65 mol/l

— US6376485B1, “Benzoxazoles with PDE-inhibiting activity” (Byk Gulden Lomberg Chemische Fabrik GmbH, priority 1998, dated 2002)
